Patent US4559402A, “Pyrazolopyridines and tetrahydro pyrazolopyridines” (Kyorin Seiyaki Kabushiki Kaisha, priority 1983, dated 1985)
Like-named read-outs stand apart in the source and are kept apart here.

Experiments:
[1] = system: Rabbit platelet aggregation induced by arachidonic acid; assay: Effects on rabbit platelet aggregation in vitro (PRP), arachidonic acid-induced; assay type: cell-based; settings: Oryctolagus cuniculus, 0.05 h, arachidonic acid 10^-4 M, 3 min. preincubation, read-out: IC100 (concentration which gave maximum (100%) inhibition against platelet aggregation)
Protocol: (§1) The antiaggregant activity in vitro of the present compounds was studied in platelet rich plasma from rabbit and man.
(§2) Blood was taken from the femoral artery of rabbit with a syringe containing sodium citrate (3.8%, 1 vol. in 9 vol. of blood). The citrated blood was centrifuged at 800 rpm. The supernatants were stored at 10° C. until use as platelet rich plasma (PRP) in the subsequent experiment. Platelet aggregation was determined with aggregometer (D-P 247 E, SIENCO Ltd.). Stock solution of test compounds was made by suspending at a concentration of 10 mg/ml in 1% gum arabic solution. Further, dilution was made with 0.9% saline. PRP was preincubated for 3 min. with the test compounds, and then arachidonic acid as aggregant was added at final concentration of 10^-4 M.
(§3) IC100 -values are the concentrations which gave maximum (100%) inhibition against platelet aggregation caused by arachidonic acid.

[2] = Gastro-intestinal lesions in rats (ulcerogenic activity); set-up: species or system Male Wistar rats; settings: rat, in vivo, po
Protocol: Male Wistar rats weighing 250 to 300 g were used in this experiment. Ulcer formation under the satiety condition was studied as follows: Rats not fasted prior to experiment were administered orally with test compounds. The animals were allowed free access to diet and water for 24 hours after the drug administration until sacrificed by exsanguination. The stomach and the intestine were removed and examined for lesions.
In the other study, rats had been deprived of food and water for 24 hours before drug administration. The animals were administered orally with the compound of Example 2 and aspirin and then they had free access to water but not to diet. Twenty-four hours later, the animals were killed by the exsanguination. The stomach and the intestine were removed and observed carefully to know whether or not lesions were present.
Units for the UD50values: mg/kg, p.o. UD50 means the dose that
cause the lesions in 50% of animals.

[3] = system: arachidonic acid-induced aggregation of platelets from rabbit; assay: Ex vivo studies on platelet aggregation (PRP from rabbit administered orally), arachidonic acid-induced; assay type: in vivo; settings: oral, blood taken one hour after administration, FIG. 1
Protocol: To know the absorbability and potency of the compound of this invention, another platelet aggregation tests were done using the PRP from rabbit which had been administered orally with the drugs.
Rabbits were administered orally with the compound of Example 2 or aspirin. One hour after the drug administration, blood was taken from the femoral artery. The methods for preparing PRP and determining platelet aggregation were the same as Experiment 1.

[4] = Acute Toxicity (LD50), rats; settings: rat, in vivo
[5] = Effect on blood viscosity (whole blood and plasma viscosities, hematocrit); assay type: in vivo, Male Wistar rats; settings: rat, 10 mg/kg p.o. twice a day for 2 days
Protocol: Male Wistar rats weighing 300-380 g were used in this experiment. Rats were administered orally 10 mg/kg twice a day of the compound of Example 2 for 2 days. One hour after the last treatment, rats were anaesthetized with pentobarbital 35 mg/kg ip, and then blood was taken from vena cava caudalis. EDTA was added at a final concentration of 2 mM.
Whole blood and plasma viscosities were measured with rotational viscometer (Contraves LS-30, shear rate 0-128.5 sec.^-1, 37° C.) and hematocrit was determined by microhematocrit centrifugation (13,000 g for 5 min.).

[6] = Acute Toxicity (LD50), mice; settings: mouse, in vivo
[7] = system: human platelet aggregation, arachidonic acid-induced; assay: Effects on human platelet aggregation in vitro (PRP), arachidonic acid-induced; assay type: cell-based
Protocol: as §1, §2, §3
(§4) Blood samples were taken from median cubital vein of 5 healthy volunteers (male, 30 to 42 age) with plastic syringe. The citrated blood (sodium citrate 1 vol. in 9 vol. of blood) was centrifuged at 1000 rpm. The supernatant (PRP) was stored at 10° C. and used within 5 hours. Arachidonic acid (4-8×10^-4 M) and collagen (6-8 μg/ml, SIGMA, Type III) were used as aggregants. Other procedures were the same as in Experiment 1.

[8] = system: human platelet aggregation, collagen-induced; assay: Effects on human platelet aggregation in vitro (PRP), collagen-induced; assay type: cell-based; settings: 0.05 h, collagen 6-8 μg/ml, read-out: concentration that completely inhibited platelet aggregation
Protocol: as §1, §2, §3, §4

[9] = iv, read-out: Acute Toxicity LD50, I.V.
[10] = po, read-out: Acute Toxicity LD50, P.O.

CCOC(=O)C(C)N1C=C(C(=O)c2c(C)nn3ccccc23)CCC1 (centres unmarked) [Example 10, 3-[1-(1-ethoxycarbonylethyl)-1,4,5,6-tetrahydronicotinoyl]-2-methylpyrazolo-[1,5-a]pyridine]
IC100 [1]: 0.3 µg/mL

Cc1nn2ccccc2c1C(=O)C1=CNCCC1 [Example 2, 2-methyl-3-(1,4,5,6-tetrahydronicotinoyl)pyrazolo[1,5-a]pyridine]
TD50 at 24 h ([2]; UD50 (dose that cause the lesions in 50% of animals), Fasting): 300 to 500 mg/kg
TD50 at 24 h ([2]; UD50 (dose that cause the lesions in 50% of animals), Satiety): > 1000 mg/kg
inhibitory activity on arachidonic acid-induced platelet aggregation relative to aspirin [3]: several times as high as aspirin
LD50 [4, 9]: > 100 mg/kg
LD50 [4, 10]: > 1000 mg/kg
IC100 [1]: 0.03 µg/mL
effect on hematocrit [5]: no effects
effect on plasma viscosity [5]: no effects
reduction of whole blood viscosity, shear rate 0.1285 sec.^-1 [5]: 50.1%
reduction of whole blood viscosity, shear rate 0.514 sec.^-1 [5]: 36.1%
reduction of whole blood viscosity, shear rate 6.425 sec.^-1 [5]: 23.5%
reduction of whole blood viscosity, shear rate 25.7 sec.^-1 [5]: 19.2%
reduction of whole blood viscosity, shear rate 128.5 sec.^-1 [5]: 12.0%
Plasma Viscosity ([5]; 37° C.): 1.14 ± 0.01 mPS
Whole Blood Viscosity, shear rate 0.1285 sec.^-1 ([5]; 37° C., * p < 0.05 vs vehicle): 24.8 ± 2.71 mPS
Whole Blood Viscosity, shear rate 0.514 sec.^-1 ([5]; 37° C., * p < 0.05 vs vehicle): 17.2 ± 1.31 mPS
Whole Blood Viscosity, shear rate 6.425 sec.^-1 ([5]; 37° C., * p < 0.05 vs vehicle): 7.31 ± 0.36 mPS
Whole Blood Viscosity, shear rate 25.7 sec.^-1 ([5]; 37° C., * p < 0.05 vs vehicle): 5.18 ± 0.12 mPS
Whole Blood Viscosity, shear rate 128.5 sec.^-1 ([5]; 37° C., * p < 0.05 vs vehicle): 3.68 ± 0.08 mPS
Hematocrit ([5]; microhematocrit centrifugation): 46.0 ± 0.71%
LD50 [6, 9]: 125 to 150 mg/kg
LD50 [6, 10]: > 1000 mg/kg
difference in the IC100-values between individuals ([7]; arachidonic acid and collagen, considered to be due to individual difference): About 300 folds
inhibitory activity against both arachidonic acid- and collagen-induced platelet aggregation ([7]; comparison of the two aggregants): almost the same inhibitory activity

Cc1nn2ccccc2c1C(=O)C1=CN(C(=O)Nc2ccc(Cl)cc2)CCC1 [Example 4, 2-methyl-3-[1-(p-chlorophenylcarbamoyl)-1,4,5,6-tetrahydronicotinoyl]-pyrazolo[1,5-a]pyridine]
IC100 [1]: 1 µg/mL

CC(=O)Oc1ccccc1C(=O)O [Aspirin, reference compound]
TD50 at 24 h ([2]; deprived of food and water for 24 hours before, examined 24 hours after, read-out: UD50 (dose that cause the lesions in 50% of animals), Fasting): 25 to 50 mg/kg
TD50 at 24 h ([2]; not fasted, 24 hours, read-out: UD50 (dose that cause the lesions in 50% of animals), Satiety): 230 mg/kg
IC100 [8]: 100 µg/mL
IC100 [1]: 4 µg/mL

Cc1nn2c(c1C(=O)C1=CNCCC1)CCCC2 [Example 3, 2-methyl-3-(1,4,5,6-tetrahydronicotinoyl)-4,5,6,7-tetrahydropyrazole[1,5-a]pyridine]
IC100 [1]: 0.2 µg/mL

Cc1nn2ccccc2c1C(=O)c1cccnc1 [Example 1, 2-methyl-3-nicotinoylpyrazolo[1,5-a]pyridine]
IC100 [1]: 6 µg/mL
